In patent US7947706B2, “Substituted pyrrolopyridines, compositions containing them, manufacturing process therefor and use thereof” (Sanofi-Aventis Deutschland GmbH, priority 2005, dated 2011):

Tests used:
FAK = biological target: T1, FAK (Homo sapiens, UniProt Q05397); test: FAK autophosphorylation inhibition, time-resolved fluorescence test (HTRF); type: biochemical; conditions: autophosphorylation of His-tagged human FAK, 15 μM ATP, 1 hour at 37° C.
T1 construct: The whole cDNA of human FAK; made in house; host or cells: baculovirus expression (pFastBac HTc)
Description: The inhibitory activity of the compounds on FAK is determined by measuring the inhibition of autophosphorylation of the enzyme using a time-resolved fluorescence test (HTRF).
The whole cDNA of human FAK, the N-terminal end of which has been labelled with histidine, was cloned in a pFastBac HTc baculovirus expression vector. The protein was expressed and purified to about 70% homogeneity.
The kinase activity is determined by incubating the enzyme (6.6 μg/ml) with different concentrations of test compound in a 50 mM Hepes pH=7.2, 10 mM MgCl2, 100 μm Na3VO4, 15 μM ATP buffer for 1 hour at 37° C. The enzymatic reaction is stopped by adding Hepes pH=7.0 buffer containing 0.4 mM KF, 133 mM EDTA, 0.1% BSA and the labelling is performed, for 1 to 2 hours at room temperature, by adding to this buffer an anti-Histidine antibody labelled with XL665 and a tyrosine phosphospecific monoclonal antibody conjugated to europium cryptate (Eu—K). The characteristics of the two fluorophores are available in G. Mathis et al., Anticancer Research, 1997, 17, pages 3011-3014. The energy transfer from the excited europium cryptate to the acceptor XL665 is proportional to the degree of autophosphorylation of FAK. The long-lasting signal specific for XL-665 is measured in a Packard Discovery plate counter. All the tests are performed in duplicate and the average of the two tests is calculated. The inhibition of the autophosphorylation activity of FAK with compounds of the invention is expressed as a percentage of inhibition relative to a control whose activity is measured in the absence of test compound. To calculate the percentage inhibition, the ratio [signal at 665 nm/signal at 620 nm] is considered.

KDR = biological target: T2, KDR (Homo sapiens, UniProt P35968); test: KDR substrate phosphorylation test, scintillation technique; type: biochemical; conditions: GST-KDR cytoplasmic domain, PLCγ SH2-SH3 substrate, 33P-ATP, 1 hour at 37° C.
T2 construct: The cytoplasmic domain of the human KDR enzyme; GST; made in house; host or cells: SF21 insect cells (baculovirus, pFastBac)
Description: The inhibitory effect of the compounds is determined in an in vitro test of phosphorylation of substrate with the enzyme KDR via a scintillation technique (96-well plate, NEN).
The cytoplasmic domain of the human KDR enzyme was cloned in the form of a GST fusion in the pFastBac baculovirus expression vector. The protein was expressed in the SF21 cells and purified to about 60% homogeneity.
The KDR kinase activity is measured in 20 mM MOPS, 10 mM MgCl2, 10 mM MnCl2, 1 mM DTT, 2.5 mM EGTA, 10 mM b-glycerophosphate, pH=7.2, in the presence of 10 mM MgCl2, 100 μm Na3VO4, 1 mM NaF. 10 μl of the compound are added to 70 μl of kinase buffer containing 100 ng of KDR enzyme at 4° C. The reaction is initiated by adding 20 μl of solution containing 2 μg of substrate (SH2-SH3 fragment of PLCγ expressed in the form of a GST fusion protein), 2 μCi of γ^33P[ATP] and 2 μm of cold ATP. After incubation for 1 hour at 37° C., the reaction is stopped by adding 1 volume (100 μl) of 200 mM EDTA. The incubation buffer is removed, and the wells are washed three times with 300 μl of PBS. The radioactivity in each well is measured using a Top Count NXT radioactivity counter (Packard).
The background noise is determined by measuring the radioactivity in four different wells containing radioactive ATP and the substrate alone.
A total activity control is measured in four different wells containing all the reagents (γ^33P-[ATP], KDR and substrate PLCγ), but in the absence of compound.
The inhibition of the KDR activity with the compound of the invention is expressed as a percentage of inhibition of the control activity determined in the absence of compound.
Compound SU5614 (Calbiochem) (1 μM) is included in each plate as an inhibition control.

T1 sequence (Q05397 whole entry): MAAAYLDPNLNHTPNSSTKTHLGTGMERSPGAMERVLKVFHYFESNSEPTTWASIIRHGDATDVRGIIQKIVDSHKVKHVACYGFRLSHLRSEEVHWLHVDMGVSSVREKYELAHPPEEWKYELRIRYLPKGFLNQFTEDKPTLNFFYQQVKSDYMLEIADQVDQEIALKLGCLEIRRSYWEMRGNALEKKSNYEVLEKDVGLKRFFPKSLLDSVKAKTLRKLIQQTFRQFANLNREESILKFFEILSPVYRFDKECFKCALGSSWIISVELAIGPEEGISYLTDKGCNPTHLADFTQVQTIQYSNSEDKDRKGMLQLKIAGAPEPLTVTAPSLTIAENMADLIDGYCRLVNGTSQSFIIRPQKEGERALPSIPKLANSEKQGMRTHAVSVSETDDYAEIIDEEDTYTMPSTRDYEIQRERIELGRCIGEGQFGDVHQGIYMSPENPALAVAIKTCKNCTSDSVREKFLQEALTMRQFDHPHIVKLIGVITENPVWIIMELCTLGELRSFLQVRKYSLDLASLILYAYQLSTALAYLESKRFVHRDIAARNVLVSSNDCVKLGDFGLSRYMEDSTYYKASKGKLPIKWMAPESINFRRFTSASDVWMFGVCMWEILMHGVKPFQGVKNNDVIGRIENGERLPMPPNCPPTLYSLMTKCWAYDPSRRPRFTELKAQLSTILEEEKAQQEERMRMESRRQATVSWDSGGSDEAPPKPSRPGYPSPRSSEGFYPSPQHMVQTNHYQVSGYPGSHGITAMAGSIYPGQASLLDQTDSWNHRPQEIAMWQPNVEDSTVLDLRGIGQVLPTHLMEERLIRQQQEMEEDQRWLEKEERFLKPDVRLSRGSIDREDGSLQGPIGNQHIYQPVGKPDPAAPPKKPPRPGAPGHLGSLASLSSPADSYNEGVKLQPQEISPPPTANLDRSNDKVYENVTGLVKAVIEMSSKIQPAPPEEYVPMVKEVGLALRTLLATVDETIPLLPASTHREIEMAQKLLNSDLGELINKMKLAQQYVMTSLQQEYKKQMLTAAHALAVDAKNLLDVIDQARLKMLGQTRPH
T2 sequence (P35968 786-1356 limits assumed): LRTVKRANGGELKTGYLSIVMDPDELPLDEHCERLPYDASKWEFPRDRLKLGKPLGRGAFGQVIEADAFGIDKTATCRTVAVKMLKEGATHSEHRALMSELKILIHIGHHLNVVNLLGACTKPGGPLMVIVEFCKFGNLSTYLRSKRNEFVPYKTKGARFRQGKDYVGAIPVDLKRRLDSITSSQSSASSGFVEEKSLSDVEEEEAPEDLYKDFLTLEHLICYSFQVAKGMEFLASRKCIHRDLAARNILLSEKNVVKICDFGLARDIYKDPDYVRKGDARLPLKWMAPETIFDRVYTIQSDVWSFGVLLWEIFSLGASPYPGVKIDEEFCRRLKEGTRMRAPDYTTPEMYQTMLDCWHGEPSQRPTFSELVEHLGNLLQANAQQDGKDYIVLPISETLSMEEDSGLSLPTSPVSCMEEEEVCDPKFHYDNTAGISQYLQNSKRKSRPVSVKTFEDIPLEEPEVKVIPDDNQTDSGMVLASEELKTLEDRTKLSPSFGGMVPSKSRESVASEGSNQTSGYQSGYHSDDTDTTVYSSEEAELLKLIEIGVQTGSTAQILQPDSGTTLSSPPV

Structure (SMILES)	IC50 (FAK)	IC50 (KDR)
NC(=O)c1[nH]c2cnccc2c1-c1ccc(NC(=O)Nc2cc(C(F)(F)F)ccc2F)cc1 [Example 1, 3-{4-[3-(2-Fluoro-5-trifluoromethylphenyl)ureido]phenyl}-1H-pyrrolo[2,3-c]pyridine-2-carboxamide]	164 nM	29 nM
COc1ccc(C)cc1NC(=O)Nc1ccc(-c2c(C(N)=O)[nH]c3cnccc23)cc1 [Example 2, 3-{4-[3-(2-Methoxy-5-methylphenyl)ureido]phenyl}-1H-pyrrolo[2,3-c]pyridine-2-carboxamide]	299 nM	150 nM
Cc1ccc(F)c(NC(=O)Nc2ccc(-c3c(C(N)=O)[nH]c4cnccc34)cc2)c1.O=C(O)C(F)(F)F [Example 5, 3-{4-[3-(2-Fluoro-5-methylphenyl)ureido]phenyl}-1H-pyrrolo[2,3-c]pyridine-2-carboxamide trifluoroacetate]	249 nM	258 nM
NC(=O)c1[nH]c2ncccc2c1-c1ccc(NC(=O)Nc2cc(C(F)(F)F)ccc2F)cc1 [Example 7, 3-{4-[3-(2-Fluoro-5-trifluoromethylphenyl)ureido]phenyl}-1H-pyrrolo[2,3-b]pyridine-2-carboxamide]	184 nM	34 nM
